Laboratory results taken from patent US20100137305A1, “AMINOPYRIMIDINES USEFUL AS KINASE INHIBITORS” (VERTEX PHARMACEUTICALS INCORPORATED, priority 2008, published 2010).
Like-named read-outs stand apart in the source and are kept apart here.

How the values were obtained:
[1] = biological target: N-terminally truncated (Δ 27) Abl kinase (Homo sapiens, UniProt P00519); assay: Abl Kinase Activity Inhibition Assay, coupled enzyme system; format: biochemical; conditions: 110 μM ATP, 30° C.
Experimental: Compounds were screened for their ability to inhibit N-terminally truncated (Δ 27) Abl kinase activity using a standard coupled enzyme system (Fox et al., Protein Sci., 7, pp. 2249 (1998)). Reactions were carried out in a solution containing 100 mM HEPES (pH 7.5), 10 mM MgCl2, 25 mM NaCl, 300 μM NADH, 1 mM DTT and 3% DMSO. Final substrate concentrations in the assay were 110 μM ATP (Sigma Chemicals, St Louis, Mo.) and 70 μM peptide (EAIYAAPFAKKK, American Peptide, Sunnyvale, Calif.). Reactions were carried out at 30° C. and 21 nM Abl kinase. Final concentrations of the components of the coupled enzyme system were 2.5 mM phosphoenolpyruvate, 200 μM NADH, 60 μg/ml pyruvate kinase and 20 μg/ml lactate dehydrogenase.
An assay stock buffer solution was prepared containing all of the reagents listed above with the exception of ATP and the test compound of interest. The assay stock buffer solution (60 μl) was incubated in a 96 well plate with 2 μl of the test compound of interest at final concentrations typically spanning 0.002 μM to 30 μM at 30° C. for 10 min. Typically, a 12 point titration was prepared by serial dilutions (from 1 mM compound stocks) with DMSO of the test compounds in daughter plates. The reaction was initiated by the addition of 5 μl of ATP (final concentration 110 μM). Rates of reaction were obtained using a Molecular Devices Spectramax plate reader (Sunnyvale, Calif.) over 10 min at 30° C. The Ki values were determined from the residual rate data as a function of inhibitor concentration using nonlinear regression (Prism 3.0, Graphpad Software, San Diego, Calif.).

[2] = biological target: T1, Aurora-2 (Aurora A) (Homo sapiens, UniProt O14965); assay: Aurora-2 (Aurora A) Inhibition Assay, coupled enzyme assay; format: biochemical; conditions: 400 μM ATP, 30° C.; read-out: Aurora A kinase activity Ki
T1 sequence (O14965 1-403): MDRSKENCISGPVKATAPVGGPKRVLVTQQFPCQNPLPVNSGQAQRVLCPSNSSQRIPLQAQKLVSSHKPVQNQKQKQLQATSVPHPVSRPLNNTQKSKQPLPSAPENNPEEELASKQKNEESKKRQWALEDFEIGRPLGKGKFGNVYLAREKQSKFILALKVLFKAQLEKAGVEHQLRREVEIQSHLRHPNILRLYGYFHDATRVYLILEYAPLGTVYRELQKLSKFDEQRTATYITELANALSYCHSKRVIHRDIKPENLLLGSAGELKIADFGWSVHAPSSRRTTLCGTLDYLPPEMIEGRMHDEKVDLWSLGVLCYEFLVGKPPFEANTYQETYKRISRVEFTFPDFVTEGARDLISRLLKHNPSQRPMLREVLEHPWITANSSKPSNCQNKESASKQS
Experimental: Compounds were screened for their ability to inhibit Aurora-2 using a standard coupled enzyme assay (Fox et al., Protein Sci., (1998) 7, 2249). Assays were carried out in a mixture of 100 mM Hepes (pH7.5), 10 mM MgCl2, 1 mM DTT, 25 mM NaCl, 2.5 mM phosphoenolpyruvate, 300 μM NADH, 30 μg/ml pyruvate kinase and 10 μg/ml lactate dehydrogenase. Final substrate concentrations in the assay were 400 μM ATP (Sigma Chemicals) and 570 μM peptide (Kemptide, American Peptide, Sunnyvale, Calif.). Assays were carried out at 30° C. and in the presence of 40 nM Aurora-2.
An assay stock buffer solution was prepared containing all of the reagents listed above, with the exception of Aurora-2 and the test compound of interest. 55 μl of the stock solution was placed in a 96 well plate followed by addition of 2 μl of DMSO stock containing serial dilutions of the test compound (typically starting from a final concentration of 7.5 μM). The plate was preincubated for 10 minutes at 30° C. and the reaction initiated by addition of 10 μl of Aurora-2. Initial reaction rates were determined with a Molecular Devices SpectraMax Plus plate reader over a 10 minute time course. IC50 and Ki data were calculated from non-linear regression analysis using the Prism software package (GraphPad Prism version 3.0cx for Macintosh, GraphPad Software, San Diego Calif., USA).

[3] = system: Colo205 cells; assay: Analysis of Cell Proliferation, 3H thymidine incorporation; format: cell-based; conditions: Homo sapiens
Experimental: Compounds were screened for their ability to inhibit cell proliferation using Colo205 cells obtained from ECACC and using the assay shown below.
Colo205 cells were seeded in 96 well plates and serially diluted compound was added to the wells in duplicate. Control groups included untreated cells, the compound diluent (0.1% DMSO alone) and culture medium without cells. The cells were then incubated for 72 or 96 hrs at 37C in an atmosphere of 5% CO2/95% humidity.
To measure proliferation, 3 h prior to the end of the experiment 0.5 μCi of 3H thymidine was added to each well. Cells were then harvested and the incorporated radioactivity counted on a Wallac microplate beta-counter. Dose response curves were calculated using either Prism 3.0 (GraphPad) or SoftMax Pro 4.3.1 LS (Molecular Devices) software.

[4] = biological target: Aurora-1 (Aurora B) (Homo sapiens, UniProt Q96GD4); assay: Aurora-1 (Aurora B) Inhibition Assay (radiometric); format: biochemical; conditions: 800 μM ATP; read-out: Aurora B kinase activity Ki
Experimental: An assay buffer solution was prepared which consisted of 25 mM HEPES (pH 7.5), 10 mM MgCl2, 0.1% BSA and 10% glycerol. A 22 nM Aurora-B solution, also containing 1.7 mM DTT and 1.5 mM Kemptide (LRRASLG), was prepared in assay buffer. To 22 μL of the Aurora-B solution, in a 96-well plate, was added 2 μl of a compound stock solution in DMSO and the mixture allowed to equilibrate for 10 minutes at 25° C. The enzyme reaction was initiated by the addition of 16 μl stock [γ-^33P]-ATP Pi-ATP solution (˜20 nCi/μL) prepared in assay buffer, to a final assay concentration of 800 μM. The reaction was stopped after 3 hours by the addition of 16 μL 500 mM phosphoric acid and the levels of ^33P incorporation into the peptide substrate were determined by the following method.
A phosphocellulose 96-well plate (Millipore, Cat no. MAPHNOB50) was pre-treated with 100 μL of a 100 mM phosphoric acid prior to the addition of the enzyme reaction mixture (40 μL). The solution was left to soak on to the phosphocellulose membrane for 30 minutes and the plate subsequently washed four times with 200 μL of a 100 mM phosphoric acid. To each well of the dry plate was added 30 μL of Optiphase ‘SuperMix’ liquid scintillation cocktail (Perkin Elmer) prior to scintillation counting (1450 Microbeta Liquid Scintillation Counter, Wallac). Levels of non-enzyme catalyzed background radioactivity were determined by adding 16 μL of the 500 mM phosphoric acid to control wells, containing all assay components (which acts to denature the enzyme), prior to the addition of the [γ-^33P]-ATP solution. Levels of enzyme catalyzed ^33P incorporation were calculated by subtracting mean background counts from those measured at each inhibitor concentration. For each Ki determination 8 data points, typically covering the concentration range 0-10 μM compound, were obtained in duplicate (DMSO stocks were prepared from an initial compound stock of 10 mM with subsequent 1:2.5 serial dilutions). Ki values were calculated from initial rate data by non-linear regression using the Prism software package (Prism 3.0, Graphpad Software, San Diego, Calif.).

[5] = COLO 205, 96 h, 96 hours, read-out: IC50 cell proliferation after 96 hours
[6] = COLO 205, 72 h, 72 hours, read-out: IC50 cell proliferation after 72 hours

Aurora-1 (Aurora B), sequence (Q96GD4 whole entry): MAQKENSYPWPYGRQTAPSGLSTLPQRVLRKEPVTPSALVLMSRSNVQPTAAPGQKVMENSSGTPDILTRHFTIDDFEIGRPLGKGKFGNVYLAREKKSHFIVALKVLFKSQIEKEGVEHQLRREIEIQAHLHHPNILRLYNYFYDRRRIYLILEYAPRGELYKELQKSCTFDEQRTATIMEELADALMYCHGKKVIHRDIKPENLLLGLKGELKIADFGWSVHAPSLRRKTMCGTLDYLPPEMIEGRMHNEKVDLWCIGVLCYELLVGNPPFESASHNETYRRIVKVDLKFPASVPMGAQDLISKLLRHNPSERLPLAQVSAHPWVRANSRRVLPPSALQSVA
N-terminally truncated (Δ 27) Abl kinase, sequence (P00519 whole entry, stated change not applied, the tested form may be a part): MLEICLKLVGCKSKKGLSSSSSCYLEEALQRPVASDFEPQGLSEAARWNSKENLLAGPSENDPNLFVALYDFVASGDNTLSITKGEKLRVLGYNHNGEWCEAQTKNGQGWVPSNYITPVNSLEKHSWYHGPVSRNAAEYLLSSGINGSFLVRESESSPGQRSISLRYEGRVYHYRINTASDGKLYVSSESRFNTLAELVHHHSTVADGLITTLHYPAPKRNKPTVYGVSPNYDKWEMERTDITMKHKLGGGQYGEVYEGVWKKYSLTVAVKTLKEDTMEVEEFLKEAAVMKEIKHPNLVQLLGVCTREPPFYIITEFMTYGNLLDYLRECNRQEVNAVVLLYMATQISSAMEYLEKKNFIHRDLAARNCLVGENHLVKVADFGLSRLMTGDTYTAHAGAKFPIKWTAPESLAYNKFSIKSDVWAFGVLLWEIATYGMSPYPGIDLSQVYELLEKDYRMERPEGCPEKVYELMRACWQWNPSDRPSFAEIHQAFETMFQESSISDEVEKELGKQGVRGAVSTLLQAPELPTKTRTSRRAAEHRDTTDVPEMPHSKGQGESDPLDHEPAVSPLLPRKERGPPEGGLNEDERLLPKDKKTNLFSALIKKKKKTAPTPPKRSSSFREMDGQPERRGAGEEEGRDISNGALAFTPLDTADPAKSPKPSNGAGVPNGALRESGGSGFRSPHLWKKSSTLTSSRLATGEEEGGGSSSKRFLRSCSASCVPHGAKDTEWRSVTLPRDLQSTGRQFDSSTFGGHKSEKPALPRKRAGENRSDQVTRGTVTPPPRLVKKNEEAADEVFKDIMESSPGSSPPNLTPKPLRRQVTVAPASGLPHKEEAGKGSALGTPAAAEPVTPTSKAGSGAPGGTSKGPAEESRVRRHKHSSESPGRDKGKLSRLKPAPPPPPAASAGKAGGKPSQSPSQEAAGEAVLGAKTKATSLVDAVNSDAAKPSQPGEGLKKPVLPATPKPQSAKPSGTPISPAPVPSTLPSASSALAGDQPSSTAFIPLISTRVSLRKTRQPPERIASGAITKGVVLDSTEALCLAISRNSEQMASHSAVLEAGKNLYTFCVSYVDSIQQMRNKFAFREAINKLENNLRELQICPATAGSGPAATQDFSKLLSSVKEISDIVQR

Row | Ki [1] [nM] | Ki [2] [nM] | IC50 [3, 5] [nM] | Ki [4] [nM] | IC50 [3, 6] [nM] | Structure (SMILES)
1 | < 25 | ≤ 10 |  |  |  | Cc1cnc(Nc2cc(N3CCC(N4CCOCC4)CC3)nc(Sc3ccc(NC(=O)C4CC4)cc3)n2)s1 [Compound I-4]
2 | 25 to 100 | ≤ 10 | 50 to 200 |  |  | Cc1cnc(Nc2cc(N3CC[C@H](O)C3)nc(Sc3ccc(NC(=O)C4CC4)cc3)n2)s1 [Compound I-12]
3 | < 25 | ≤ 10 | 50 to 200 |  |  | CCC(=O)Nc1ccc(Sc2nc(Nc3cc(C)n[nH]3)cc(N3CC[C@@H](N(C)C)C3)n2)cc1 [Compound I-24]
4 |  | ≤ 10 | ≤ 50 | 10 to 50 |  | CCC(=O)Nc1ccc(Sc2nc(Nc3cc(C)n[nH]3)cc(N3CCC(O)(CC)CC3)n2)cc1 [Compound I-44]
5 |  | ≤ 10 | ≤ 50 | 10 to 50 |  | CCC(=O)Nc1ccc(Sc2nc(Nc3cc(C)n[nH]3)cc(N3CCC(C(C)(C)OC)CC3)n2)cc1 [Compound I-45]
6 |  | ≤ 10 | ≤ 50 | 10 to 50 |  | CCC(=O)Nc1ccc(Sc2nc(Nc3cc(C)n[nH]3)cc(N3CCC(N(C)C(C)(C)C)CC3)n2)cc1 [Compound I-47]
7 |  | ≤ 10 | ≤ 50 | 10 to 50 |  | CCC(=O)Nc1ccc(Sc2nc(Nc3ncc(C)s3)cc(N3CCC(N4CCCC4)CC3)n2)cc1 [Compound I-49]
8 |  | ≤ 10 | ≤ 50 | 10 to 50 |  | CN1CCC2(CCN(c3cc(Nc4cc(C5CC5)n[nH]4)nc(Sc4ccc(NC(=O)C5CC5)cc4)n3)CC2)C1 [Compound I-51]
9 | < 25 | ≤ 10 | ≤ 50 |  |  | CN[C@H]1CCN(c2cc(Nc3ncc(C)s3)nc(Sc3ccc(NC(=O)C4CC4)cc3)n2)C1 [Compound I-52]
10 |  | ≤ 10 | ≤ 50 | 10 to 50 |  | Cc1cc(Nc2cc(N3CCC4(CCN(C)C4)CC3)nc(Sc3ccc(NC(=O)C4CC4)cc3F)n2)[nH]n1 [Compound I-54]
11 |  | ≤ 10 | ≤ 50 | 10 to 50 | ≤ 25 | CCC(=O)Nc1ccc(Sc2nc(Nc3cc(C4CC4)n[nH]3)cc(N3CCC(N4CCCC4)CC3)n2)cc1 [Compound I-56]
12 |  | ≤ 10 | ≤ 50 | 10 to 50 |  | CCC(=O)Nc1ccc(Sc2nc(Nc3cc(C)n[nH]3)cc(N3CCC(O)(C(C)C)CC3)n2)cc1 [Compound I-58]
13 |  | ≤ 10 | ≤ 50 | 10 to 50 | ≤ 25 | Cc1cnc(Nc2cc(N3CC4CCCNC4C3)nc(Sc3ccc(NC(=O)C4CC4)cc3)n2)s1 (centres unmarked) [Compound I-59]
14 |  | ≤ 10 | ≤ 50 | 10 to 50 |  | CCC(=O)Nc1ccc(Sc2nc(Nc3cc(C4CC4)n[nH]3)cc(N3CC[C@H](N4CCCC4)C3)n2)cc1 [Compound I-62]
15 |  | ≤ 10 |  | 10 to 50 | ≤ 25 | Cc1cc(Nc2cc(N3CCC(N4CCN(C)CC4)CC3)nc(Sc3ccc(NC(=O)C4(C(F)(F)F)CC4)cc3)n2)[nH]n1 [Compound I-64]
16 |  | ≤ 10 |  | 10 to 50 | ≤ 25 | Cc1cnc(Nc2cc(N3CCC(N4CCN(C)CC4)CC3)nc(Sc3ccc(NC(=O)CC(F)(F)F)cc3)n2)s1 [Compound I-66]
17 |  | ≤ 10 |  | ≤ 10 | ≤ 25 | Cc1cc(Nc2cc(N3CCC(N4CCOCC4)CC3)nc(Sc3ccc(NC(=O)C4(C(F)(F)F)CC4)cc3)n2)[nH]n1 [Compound I-67]
18 |  | ≤ 10 |  | ≤ 10 | ≤ 25 | Cc1cc(Nc2cc(N3CC[C@H](N(C)C)C3)nc(Sc3ccc(NC(=O)c4ccccc4C(F)(F)F)cc3)n2)[nH]n1 [Compound I-70]
19 |  | ≤ 10 |  | 10 to 50 | ≤ 25 | Cc1cc(Nc2cc(N3CCC(N4CCN(C)CC4)CC3)nc(Sc3ccc(NC(=O)CC(F)(F)F)cc3)n2)[nH]n1 [Compound I-73]
20 |  | ≤ 10 |  | ≤ 10 | ≤ 25 | Cc1cc(Nc2cc(N3CC[C@@H](F)C3)nc(Sc3ccc(NC(=O)c4ccccc4C(F)(F)F)cc3)n2)[nH]n1 [Compound I-74]
21 |  | ≤ 10 |  | 10 to 50 | 25 to 125 | Cc1cc(Nc2cc(N3CCC(N4CCOCC4)CC3)nc(Sc3ccc(NC(=O)C4CC4(F)F)cc3)n2)[nH]n1 (centres unmarked) [Compound I-75]
22 |  | ≤ 10 |  | ≤ 10 | 25 to 125 | Cc1cc(Nc2cc(N3CCC(F)C3)nc(Sc3ccc(NC(=O)c4ccccc4C(F)(F)F)cc3)n2)[nH]n1 (centres unmarked) [Compound I-76]
23 |  | ≤ 10 |  | 10 to 50 | 25 to 125 | Cc1cc(Nc2cc(N3CCC(N4CCCC4)CC3)nc(Sc3ccc(NC(=O)CC4CCCC4)cc3)n2)n[nH]1 [Compound I-77]
24 | < 25 |  |  |  |  | Cc1cc(Nc2cc(N3CCC(F)C3)nc(Sc3ccc(NC(=O)CC(F)(F)F)cc3)n2)[nH]n1 (centres unmarked) [Compound I-78]
25 |  | ≤ 10 |  | ≤ 10 | 25 to 125 | Cc1cc(Nc2cc(N3CCC4(CC3)OCCO4)nc(Sc3ccc(NC(=O)CC(F)(F)F)cc3)n2)[nH]n1 [Compound I-79]
26 |  | ≤ 10 |  | 10 to 50 | 25 to 125 | Cc1cc(Nc2cc(N3CCC(F)(F)CC3)nc(Sc3ccc(NC(=O)CC(F)(F)F)cc3)n2)[nH]n1 [Compound I-84]
